Source: PubChem BioAssay (NCI)
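Following 48 hours of exposure in 96-well plates, responses at five concentrations were used to interpolate endpoints linearly. GI50 = concentration required for 50% inhibition of growth. TGI denotes the concentration required for complete inhibition of growth.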

Experiments:
Assay in all cases: NCI-60 cell line screen, 48 h
[1] = tested on: OVCAR-5 ovarian
[2] = tested on: U251 CNS
[3] = tested on: SNB-19 CNS
[4] = tested on: OVCAR-8 ovarian
[5] = tested on: UACC-62 melanoma
[6] = tested on: HCT-116 colon
[7] = tested on: NCI-H460 lung
[8] = tested on: SK-MEL-28 melanoma
[9] = tested on: MCF7 breast
[10] = tested on: 786-0 renal
[11] = tested on: SF-539 CNS
[12] = tested on: A498 renal
[13] = tested on: DU-145 prostate
[14] = tested on: SF-295 CNS
[15] = tested on: HL-60(TB) leukemia
[16] = tested on: HCC-2998 colon
[17] = tested on: NCI/ADR-RES ovarian
[18] = tested on: MALME-3M melanoma
[19] = tested on: PC-3 prostate
[20] = tested on: RXF 393 renal
[21] = tested on: HT29 colon
[22] = tested on: LOX IMVI melanoma
[23] = tested on: K-562 leukemia
[24] = tested on: COLO 205 colon
[25] = tested on: SK-MEL-2 melanoma
[26] = tested on: NCI-H23 lung
[27] = tested on: TK-10 renal
[28] = tested on: ACHN renal
[29] = tested on: MDA-MB-435
[30] = tested on: HS 578T breast
[31] = tested on: EKVX NSCLC
[32] = tested on: MOLT-4 leukemia
[33] = tested on: A549 NSCLC
[34] = tested on: SK-OV-3 ovarian
[35] = tested on: UACC-257 melanoma
[36] = tested on: NCI-H522 lung
[37] = tested on: T-47D breast
[38] = tested on: UO-31 renal
[39] = tested on: RPMI-8226 leukemia
[40] = tested on: HOP-62 NSCLC
[41] = tested on: NCI-H226 lung
[42] = tested on: SF-268 CNS
[43] = tested on: M14 melanoma
[44] = tested on: CAKI-1 renal
[45] = tested on: OVCAR-3 ovarian
[46] = tested on: BT-549 breast
[47] = tested on: SNB-75 CNS
[48] = tested on: SN12C renal
[49] = tested on: SR leukemia
[50] = tested on: HCT-15 colon
[51] = tested on: KM12 colon
[52] = tested on: CCRF-CEM leukemia
[53] = tested on: SK-MEL-5 melanoma
[54] = tested on: OVCAR-4 ovarian
[55] = tested on: IGROV1 ovarian
[56] = tested on: SW-620 colon
[57] = tested on: MDA-MB-231 breast
[58] = tested on: HOP-92 NSCLC

Which GI50 [1] does the source give for CN(CCCCCl)P(=O)(OCCS(=O)(=O)CC(NC(=O)CCC(N)C(=O)O)C(=O)NC(C(=O)O)c1ccccc1)OCC1OC(n2ccc(N)nc2=O)C(O)C1O (stereo unspecified) here?
Its GI50 is > 26.1 µM.

And the TGI [1]?
Its TGI is > 75 µM.

And the GI50 [2]?
Its GI50 is 29.9 µM.

What about the TGI [2] of the same compound?
Its TGI is > 75 µM.

What about the GI50 [3] of the same compound?
Its GI50 is 45.8 µM.

And the TGI [3]?
Its TGI is > 75 µM.

And the GI50 [4]?
Its GI50 is 5.4 µM.

What about the TGI [4] of the same compound?
The TGI was > 75 µM.

And the GI50 [5]?
The GI50 was 35.8 µM.

What about the TGI [5] of the same compound?
The TGI was > 75 µM.

And the GI50 [6]?
The GI50 was 5.22 µM.

What about the TGI [6] of the same compound?
The TGI was > 75 µM.

And the GI50 [7]?
The GI50 was 6.4 µM.

What about the TGI [7] of the same compound?
Its TGI is > 75 µM.

What about the GI50 [8] of the same compound?
Its GI50 is 26.2 µM.

And the TGI [8]?
The TGI was > 75 µM.

And the GI50 [9]?
Its GI50 is 3.27 µM.

And the TGI [9]?
Its TGI is > 75 µM.

And the GI50 [10]?
The GI50 was 32.2 µM.

And the TGI [10]?
Its TGI is > 75 µM.

What about the GI50 [11] of the same compound?
Its GI50 is > 75 µM.

And the TGI [11]?
The TGI was > 75 µM.

What about the GI50 [12] of the same compound?
The GI50 was > 55.1 µM.

What about the TGI [12] of the same compound?
The TGI was > 75 µM.

What about the GI50 [13] of the same compound?
The GI50 was 9.1 µM.

What about the TGI [13] of the same compound?
Its TGI is > 75 µM.

And the GI50 [14]?
The GI50 was > 58.8 µM.

And the TGI [14]?
Its TGI is > 75 µM.

What about the GI50 [15] of the same compound?
The GI50 was 2.84 µM.

What about the TGI [15] of the same compound?
The TGI was > 30.3 µM.

And the GI50 [16]?
Its GI50 is 28 µM.

What about the TGI [16] of the same compound?
The TGI was > 75 µM.

What about the GI50 [17] of the same compound?
Its GI50 is 17.8 µM.

What about the TGI [17] of the same compound?
The TGI was > 75 µM.

And the GI50 [18]?
Its GI50 is 12.6 µM.

And the TGI [18]?
The TGI was > 75 µM.

What about the GI50 [19] of the same compound?
Its GI50 is 2.26 µM.

And the TGI [19]?
The TGI was > 75 µM.

What about the GI50 [20] of the same compound?
The GI50 was > 75 µM.

What about the TGI [20] of the same compound?
The TGI was > 75 µM.

What about the GI50 [21] of the same compound?
The GI50 was 32.2 µM.

What about the TGI [21] of the same compound?
Its TGI is > 75 µM.

And the GI50 [22]?
The GI50 was 45.5 µM.

And the TGI [22]?
Its TGI is > 75 µM.

And the GI50 [23]?
The GI50 was 7.36 µM.

What about the TGI [23] of the same compound?
Its TGI is > 75 µM.

What about the GI50 [24] of the same compound?
The GI50 was 22 µM.

What about the TGI [24] of the same compound?
The TGI was > 75 µM.

And the GI50 [25]?
Its GI50 is > 75 µM.

And the TGI [25]?
Its TGI is > 75 µM.

And the GI50 [26]?
Its GI50 is 22.6 µM.

What about the TGI [26] of the same compound?
Its TGI is > 75 µM.

And the GI50 [27]?
The GI50 was 73.4 µM.

What about the TGI [27] of the same compound?
The TGI was > 75 µM.

And the GI50 [28]?
Its GI50 is 16.7 µM.

And the TGI [28]?
The TGI was > 75 µM.

And the GI50 [29]?
Its GI50 is 28.3 µM.

And the TGI [29]?
The TGI was > 75 µM.

What about the GI50 [30] of the same compound?
Its GI50 is > 36.8 µM.

And the TGI [30]?
The TGI was > 75 µM.

And the GI50 [31]?
The GI50 was 67.4 µM.

What about the TGI [31] of the same compound?
Its TGI is > 75 µM.

And the GI50 [32]?
The GI50 was 0.851 µM.

And the TGI [32]?
Its TGI is > 31.8 µM.

What about the GI50 [33] of the same compound?
Its GI50 is 4.45 µM.

And the TGI [33]?
Its TGI is > 75 µM.

And the GI50 [34]?
Its GI50 is 57.1 µM.

What about the TGI [34] of the same compound?
The TGI was > 75 µM.

What about the GI50 [35] of the same compound?
Its GI50 is 21.1 µM.

And the TGI [35]?
The TGI was > 69.8 µM.

What about the GI50 [36] of the same compound?
The GI50 was 10.5 µM.

And the TGI [36]?
Its TGI is > 75 µM.

And the GI50 [37]?
The GI50 was 23.1 µM.

And the TGI [37]?
The TGI was > 75 µM.

And the GI50 [38]?
Its GI50 is 8.17 µM.

And the TGI [38]?
The TGI was > 59.7 µM.

And the GI50 [39]?
The GI50 was 14.7 µM.

What about the TGI [39] of the same compound?
Its TGI is > 68.8 µM.

And the GI50 [40]?
Its GI50 is 33.7 µM.

What about the TGI [40] of the same compound?
Its TGI is > 75 µM.

And the GI50 [41]?
Its GI50 is > 70.7 µM.

What about the TGI [41] of the same compound?
Its TGI is > 75 µM.

And the GI50 [42]?
Its GI50 is 49.8 µM.

And the TGI [42]?
Its TGI is > 75 µM.

What about the GI50 [43] of the same compound?
The GI50 was 4.37 µM.

What about the TGI [43] of the same compound?
Its TGI is > 75 µM.

What about the GI50 [44] of the same compound?
Its GI50 is 11 µM.

What about the TGI [44] of the same compound?
The TGI was > 75 µM.

What about the GI50 [45] of the same compound?
The GI50 was 33.7 µM.

And the TGI [45]?
Its TGI is > 75 µM.

What about the GI50 [46] of the same compound?
The GI50 was 48.7 µM.

And the TGI [46]?
The TGI was > 75 µM.

What about the GI50 [47] of the same compound?
The GI50 was 40.4 µM.

What about the TGI [47] of the same compound?
Its TGI is 74.6 µM.

What about the GI50 [48] of the same compound?
Its GI50 is > 60 µM.

What about the TGI [48] of the same compound?
Its TGI is > 75 µM.

And the GI50 [49]?
The GI50 was 1.39 µM.

And the TGI [49]?
The TGI was > 51.2 µM.

What about the GI50 [50] of the same compound?
Its GI50 is > 75 µM.

And the TGI [50]?
Its TGI is > 75 µM.

What about the GI50 [51] of the same compound?
Its GI50 is 27.4 µM.

And the TGI [51]?
The TGI was > 75 µM.

What about the GI50 [52] of the same compound?
The GI50 was 0.632 µM.

What about the TGI [52] of the same compound?
The TGI was > 75 µM.

And the GI50 [53]?
Its GI50 is 20.4 µM.

And the TGI [53]?
The TGI was > 75 µM.

What about the GI50 [54] of the same compound?
Its GI50 is 47.5 µM.

And the TGI [54]?
The TGI was > 75 µM.

What about the GI50 [55] of the same compound?
Its GI50 is 3.31 µM.

And the TGI [55]?
The TGI was > 47.3 µM.

And the GI50 [56]?
The GI50 was > 44.9 µM.

What about the TGI [56] of the same compound?
Its TGI is > 75 µM.

What about the GI50 [57] of the same compound?
The GI50 was > 75 µM.

What about the TGI [57] of the same compound?
Its TGI is > 75 µM.

What about the GI50 [58] of the same compound?
The GI50 was 4.8 µM.

And the TGI [58]?
Its TGI is 74.1 µM.
